According to PubChem BioAssay (NCI):
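GI50: concentration for 50% inhibition of growth. At the TGI there is no net growth.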

Legend:
Assay in all cases: NCI anticancer screen, dose series, 384-well format
[1] = system: 786-0 renal
[2] = system: A549 NSCLC
[3] = system: ACHN renal
[4] = system: BT-549 breast
[5] = system: CAKI-1 renal
[6] = system: CCRF-CEM leukemia
[7] = system: COLO 205 colon
[8] = system: DU-145 prostate
[9] = system: EKVX NSCLC
[10] = system: HCC-2998 colon
[11] = system: HCT-15 colon
[12] = system: HL-60(TB) leukemia
[13] = system: HOP-62 NSCLC
[14] = system: HOP-92 NSCLC
[15] = system: HS 578T breast
[16] = system: HT29 colon
[17] = system: IGROV1 ovarian
[18] = system: KM12 colon
[19] = system: M14 melanoma
[20] = system: MALME-3M melanoma
[21] = system: MCF7 breast
[22] = system: MDA-MB-231 breast
[23] = system: MDA-MB-435 melanoma
[24] = system: MDA-MB-468 breast
[25] = system: MOLT-4 leukemia
[26] = system: NCI-H226 lung
[27] = system: NCI-H23 lung
[28] = system: NCI-H322M lung
[29] = system: NCI-H460 NSCLC
[30] = system: NCI-H522 lung
[31] = system: NCI/ADR-RES ovarian
[32] = system: OVCAR-3 ovarian
[33] = system: OVCAR-4 ovarian
[34] = system: OVCAR-5 ovarian
[35] = system: OVCAR-8 ovarian
[36] = system: PC-3 prostate
[37] = system: RPMI-8226 leukemia
[38] = system: RXF 393 renal
[39] = system: SF-268 CNS
[40] = system: SF-295 CNS
[41] = system: SF-539 CNS
[42] = system: SK-MEL-2 melanoma
[43] = system: SK-MEL-28 melanoma
[44] = system: SK-MEL-5 melanoma
[45] = system: SK-OV-3 ovarian
[46] = system: SN12C renal
[47] = system: SNB-19 CNS
[48] = system: SNB-75 CNS
[49] = system: SR leukemia
[50] = system: SW-620 colon
[51] = system: T-47D breast
[52] = system: TK-10 renal
[53] = system: U251 glioblastoma
[54] = system: UACC-257 melanoma
[55] = system: UACC-62 melanoma

Nc1ncn([C@@H]2S[C@H](CO)[C@@H](O)[C@@H]2F)c(=O)n1
GI50 [1]: 254 nM | TGI [1]: 1540 nM | GI50 [2]: 409 nM | TGI [2]: > 100000 nM | GI50 [3]: 224 nM | TGI [3]: 490 nM | GI50 [4]: 1340 nM | TGI [4]: 8750 nM | GI50 [5]: 625 nM | TGI [5]: > 100000 nM | GI50 [6]: 26.6 nM | TGI [6]: 96.1 nM | GI50 [7]: 268 nM | TGI [7]: 788 nM | GI50 [8]: 389 nM | TGI [8]: 3950 nM | GI50 [9]: 6470 nM | TGI [9]: > 100000 nM | GI50 [10]: 267 nM | TGI [10]: 14100 nM | GI50 [11]: 1850 nM | TGI [11]: > 100000 nM | GI50 [12]: 241 nM | TGI [12]: 495 nM | GI50 [13]: 423 nM | TGI [13]: 2590 nM | GI50 [14]: 314 nM | TGI [14]: > 100000 nM | GI50 [15]: 984 nM | TGI [15]: > 100000 nM | GI50 [16]: 2380 nM | TGI [16]: > 100000 nM | GI50 [17]: 2030 nM | TGI [17]: > 100000 nM | GI50 [18]: 1410 nM | TGI [18]: > 100000 nM | GI50 [19]: 290 nM | TGI [19]: 833 nM | GI50 [20]: 366 nM | TGI [20]: 2660 nM | GI50 [21]: 663 nM | TGI [21]: > 100000 nM | GI50 [22]: 1140 nM | TGI [22]: 81100 nM | GI50 [23]: 1730 nM | TGI [23]: > 100000 nM | GI50 [24]: 2370 nM | TGI [24]: 8070 nM | GI50 [25]: 28.7 nM | TGI [25]: 110 nM | GI50 [26]: 1010 nM | TGI [26]: 3800 nM | GI50 [27]: 269 nM | TGI [27]: 805 nM | GI50 [28]: 2910 nM | TGI [28]: > 100000 nM | GI50 [29]: 238 nM | TGI [29]: 724 nM | GI50 [30]: 628 nM | TGI [30]: > 100000 nM | GI50 [31]: 291 nM | TGI [31]: 1380 nM | GI50 [32]: 853 nM | TGI [32]: > 100000 nM | GI50 [33]: > 100000 nM | TGI [33]: > 100000 nM | GI50 [34]: 691 nM | TGI [34]: 7730 nM | GI50 [35]: 255 nM | TGI [35]: 1830 nM | GI50 [36]: 1430 nM | TGI [36]: > 100000 nM | GI50 [37]: 2160 nM | TGI [37]: 4420 nM | GI50 [38]: 2770 nM | TGI [38]: 44800 nM | GI50 [39]: 1050 nM | TGI [39]: 4990 nM | GI50 [40]: 2440 nM | TGI [40]: 17800 nM | GI50 [41]: 3750 nM | TGI [41]: 18600 nM | GI50 [42]: 392 nM | TGI [42]: 692 nM | GI50 [43]: 507 nM | TGI [43]: 4920 nM | GI50 [44]: 435 nM | TGI [44]: 2760 nM | GI50 [45]: 299 nM | TGI [45]: 2200 nM | GI50 [46]: 604 nM | TGI [46]: 2910 nM | GI50 [47]: 461 nM | TGI [47]: 7050 nM | GI50 [48]: 15600 nM | TGI [48]: > 100000 nM | GI50 [49]: 414 nM | TGI [49]: 1400 nM | GI50 [50]: 887 nM | TGI [50]: > 100000 nM | GI50 [51]: 10400 nM | TGI [51]: > 100000 nM | GI50 [52]: 988 nM | TGI [52]: > 100000 nM | GI50 [53]: 2410 nM | TGI [53]: 23600 nM | GI50 [54]: 58700 nM | TGI [54]: > 100000 nM | GI50 [55]: 3640 nM | TGI [55]: 19700 nM
